Earlier results, collected in patent publication US6903136B2, “Food supplements containing 4-hydroxyisoleucine and creatine” (Experimental and Applied Sciences, Inc., priority 2002, dated 2005).

Key:
insulinotropic activity [1] = system: insulinotropic activity
secretion of insulin = conditions: in vitro
insulinotropic activity [2] = conditions: normal and diabetic rats; intravenous and oral delivery

Compound | activity as an insulinotropic agent (insulinotropic activity [1]) | activity as an insulinotropic agent relative to leucine, isoleucine, or homoserine (insulinotropic activity [1]; fold more active than leucine, isoleucine, or homoserine) | effect on secretion of insulin (secretion of insulin; normal blood glucose levels) | insulinotropic activity (secretion of insulin; supranormal glucose levels) | insulinotropic activity in vivo (insulinotropic activity [2])
CC1OC(=O)C(N)C1C (stereo not shown) [lactone form of 4OH-Ile] | not active | – | – | – | –
C[C@@H]([C@H](C)O)[C@H](N)C(=O)O (single isomer, unassigned) [(2S, 3R, 4S) stereoisomer of 4OH-Ile] | active | at least 15 × | – | – | –
CC(O)[C@H](C)[C@H](N)C(=O)O (stereo partly shown) [Example 4OH-Ile, 4-Hydroxyisoleucine] | – | – | does not affect the secretion of insulin | strong insulinotropic activity | verified the insulinotropic activity in vivo
CC(O)C(C)C(N)C(=O)O (single isomer, unassigned) [(2R, 3R, 4S) isomer] | inactive | – | – | – | –
